Data taken from PubChem BioAssay AID296 (DTP/NCI, 2004).
Values joined by “and” are separate entries in the source; they are usually repeats but may differ in a detail not shown here. Equal entries are not always repeated. Results filed as inconclusive are left out.

Tested on: MX-1 breast xenograft, nude mice, tumor weight T/C
Assay: NCI In Vivo Anticancer Drug Screen. Data for tumor model Human Mammary Carcinoma MX-1 Xenograft (intrarenal inoculation) in NU/NU Swiss (nude) mice
Settings: endpoint: mean tumor weight change, higher = larger tumour
Procedure, shortened: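 Tumor-bearing mice were treated with test compound alongside a vehicle-treated control group. Survival or tumor size was measured, and activity is expressed as the treated-group value divided by the control-group value.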

[1] = dose: 25.0 mg/kg/injection, schedule: Q04DX003 (sc), vehicle: saline
[2] = dose: 150.0 mg/kg/injection, schedule: Q04DX003 (sc), vehicle: saline with Tween-80
[3] = dose: 300.0 mg/kg/injection, schedule: Q04DX003 (sc), vehicle: saline with Tween-80
[4] = dose: 600.0 mg/kg/injection, schedule: Q04DX003 (sc), vehicle: saline with Tween-80
[5] = dose: 1200.0 mg/kg/injection, schedule: Q04DX003 (sc), vehicle: saline with Tween-80
[6] = dose: 25.0 mg/kg/injection, schedule: Q01DX010 (sc), vehicle: saline
[7] = dose: 12.5 mg/kg/injection, schedule: Q01DX010 (sc), vehicle: saline
[8] = dose: 50.0 mg/kg/injection, schedule: Q01DX010 (sc), vehicle: saline

Q: Which results are given for `CCN=C=NCCCN(C)C`?
A: T/C [1]: 112 % of control; T/C (dose: 50.0 mg/kg/injection, schedule: Q04DX003 (sc), vehicle: saline): 76 % of control

Q: How did the T/C (dose: 1.0 mg/kg/injection, schedule: Q01DX010 (sc), vehicle: Klucel (hydroxypropylcellulose) (HPC)) turn out when `Nc1ncnc2c1ccn2C1OC(CO)C(O)C1O` (centres undefined) was run?
A: 101 % of control

Q: And the T/C (dose: 2.0 mg/kg/injection, schedule: Q01DX010 (sc), vehicle: Klucel (hydroxypropylcellulose) (HPC))?
A: 157 % of control

Q: And the T/C (dose: 4.0 mg/kg/injection, schedule: Q01DX010 (sc), vehicle: Klucel (hydroxypropylcellulose) (HPC))?
A: 75 % of control

Q: Which results are given for `O=C(C/C(=N\C(=S)Nc1cc(C(F)(F)F)ccc1Cl)NO)N1CCCC1`?
A: T/C [2]: 88 % of control; T/C [3]: 94 % of control; T/C [4]: 82 % of control; T/C [5]: 98 % of control

Q: For `CS(=O)(=O)OCCN(CCOS(C)(=O)=O)c1ccc(C=O)cc1`, which T/C [6] is on record?
A: -67 % of control and -51 % of control

Q: Which T/C (dose: 9.38 mg/kg/injection, schedule: Q04DX003 (ip), vehicle: suspension in saline) does the source give for `CC1Oc2cc3c(-c4c(O)cc(O)c5c(O)c6c(cc45)OC(C)C(C)C6=O)c(O)cc(O)c3c(O)c2C(=O)C1C` (centres undefined) here?
A: 16 % of control

Q: How did the T/C (dose: 12.5 mg/kg/injection, schedule: Q04DX003 (sc), vehicle: saline with Tween-80) turn out when `C[CH2][Sn]([CH2]C)([CH2]C(=O)OC)[CH2]C(=O)OC` was run?
A: 79 % of control

Q: And the T/C (dose: 25.0 mg/kg/injection, schedule: Q04DX003 (sc), vehicle: saline with Tween-80)?
A: 116 % of control

Q: For `Nc1nc(/C=C(/O)c2ccccc2)c2ncn(C3OC(CO)C(O)C3O)c2n1` (centres undefined), which T/C (dose: 200.0 mg/kg/injection, schedule: Q04DX003 (sc), vehicle: distilled water + Tween-80) is on record?
A: 97 % of control

Q: What about the T/C (dose: 400.0 mg/kg/injection, schedule: Q04DX003 (sc), vehicle: distilled water + Tween-80) of the same molecule?
A: 100 % of control

Q: And the T/C (dose: 800.0 mg/kg/injection, schedule: Q04DX003 (sc), vehicle: distilled water + Tween-80)?
A: 92 % of control

Q: What about the T/C (dose: 1600.0 mg/kg/injection, schedule: Q04DX003 (sc), vehicle: distilled water + Tween-80) of the same molecule?
A: 99 % of control

Q: `NC(=S)N/N=C/c1ccc(OC(=O)COc2ccc(Cl)cc2)cn1` was tested. Which T/C [3] did it give?
A: 112 % of control

Q: What about the T/C [4] of the same molecule?
A: 88 % of control

Q: What about the T/C [5] of the same molecule?
A: 92 % of control

Q: Which results are given for `c1ccc([P+](c2ccccc2)(c2ccccc2)c2ccccc2)cc1`?
A: T/C (dose: 5.0 mg/kg/injection, schedule: Q04DX003 (sc), vehicle: saline): 80 % of control; T/C (dose: 10.0 mg/kg/injection, schedule: Q04DX003 (sc), vehicle: saline): 69 % of control; T/C (dose: 20.0 mg/kg/injection, schedule: Q04DX003 (sc), vehicle: saline): 61 % of control

Q: Which results are given for `Nc1ccc(Cl)cc1N`?
A: T/C (dose: 450.0 mg/kg/injection, schedule: Q04DX003 (sc), vehicle: saline with Tween-80): 116 % of control; T/C (dose: 900.0 mg/kg/injection, schedule: Q04DX003 (sc), vehicle: saline with Tween-80): 73 % of control; T/C (dose: 1800.0 mg/kg/injection, schedule: Q04DX003 (sc), vehicle: saline with Tween-80): 71 % of control

Q: With `O=C1NCC(Br)C(=O)N1` (centres undefined) as the molecule, how does the T/C [2] read?
A: 100 % of control

Q: For `O=c1[nH]cnc2c1ccn2C1OC(CO)C(O)C1O` (centres undefined), which T/C (dose: 12.5 mg/kg/injection, schedule: Q04DX003 (sc), vehicle: saline) is on record?
A: 57 % of control

Q: What about the T/C [1] of the same molecule?
A: 71 % of control

Q: With `COc1cc2cc[n+](C)c(Cc3ccccc3)c2cc1OC` as the molecule, how does the T/C (dose: 18.75 mg/kg/injection, schedule: Q04DX003 (sc), vehicle: Klucel (hydroxypropylcellulose) (HPC)) read?
A: 90 % of control

Q: And the T/C (dose: 37.5 mg/kg/injection, schedule: Q04DX003 (sc), vehicle: Klucel (hydroxypropylcellulose) (HPC))?
A: 115 % of control

Q: And the T/C (dose: 75.0 mg/kg/injection, schedule: Q04DX003 (sc), vehicle: Klucel (hydroxypropylcellulose) (HPC))?
A: 58 % of control

Q: Which results are given for `COc1ccc2nc3cc(Cl)ccc3c(NCCNCCNCCNc3c4ccc(Cl)cc4nc4ccc(OC)cc34)c2c1`?
A: T/C (dose: 25.0 mg/kg/injection, schedule: Q01DX010 (sc), vehicle: saline with Tween-80): 74 % of control; T/C (dose: 50.0 mg/kg/injection, schedule: Q01DX010 (sc), vehicle: saline with Tween-80): 78 % of control; T/C (dose: 100.0 mg/kg/injection, schedule: Q01DX010 (sc), vehicle: saline with Tween-80): 115 % of control; T/C (dose: 200.0 mg/kg/injection, schedule: Q01DX010 (sc), vehicle: saline with Tween-80): 80 % of control

Q: What does the source list for `CC1(O)C=CC(=O)C=C1`?
A: T/C (dose: 25.0 mg/kg/injection, schedule: Q04DX003 (ip), vehicle: water): 109 % of control; T/C (dose: 50.0 mg/kg/injection, schedule: Q04DX003 (ip), vehicle: water): 89 % of control

Q: Which results are given for `C=Cc1cnc([N+](=O)[O-])n1C`?
A: T/C (dose: 150.0 mg/kg/injection, schedule: Q04DX003 (sc), vehicle: Klucel (hydroxypropylcellulose) (HPC)): 72 % of control; T/C (dose: 300.0 mg/kg/injection, schedule: Q04DX003 (sc), vehicle: Klucel (hydroxypropylcellulose) (HPC)): 78 % of control; T/C (dose: 600.0 mg/kg/injection, schedule: Q04DX003 (sc), vehicle: Klucel (hydroxypropylcellulose) (HPC)): 54 % of control

Q: `O=C(O)C1CC1.[Ag]` was tested. Which T/C (dose: 75.0 mg/kg/injection, schedule: Q04DX003 (sc), vehicle: saline with Tween-80) did it give?
A: 120 % of control

Q: What about the T/C [2] of the same molecule?
A: 80 % of control

Q: What about the T/C [3] of the same molecule?
A: 98 % of control

Q: With `Nc1nnc[se]1` as the molecule, how does the T/C (dose: 100.0 mg/kg/injection, schedule: Q04DX003 (sc), vehicle: saline with Tween-80) read?
A: 54 % of control

Q: What about the T/C (dose: 1600.0 mg/kg/injection, schedule: Q04DX003 (sc), vehicle: saline with Tween-80) of the same molecule?
A: 74 % of control

Q: With `Cc1c(N)nc([C@H](CC(N)=O)NC[C@H](N)C(N)=O)nc1C(=O)N[C@H](C(=O)N[C@H](C)[C@@H](O)CC(=O)N[C@H](C(=O)NC(O[C@@H]1O[C@@H](C)[C@@H](N)[C@@H](O)[C@H]1O)C(O)c1nc(-c2nc(C(=O)NCCCCN)cs2)cs1)[C@@H](C)O)[C@@H](O[C@@H]1O[C@@H](CO)[C@@H](O)[C@H](O)[C@@H]1O[C@H]1O[C@H](CO)[C@@H](O)[C@H](OC(N)=O)[C@@H]1O)c1c[nH]cn1` (some centres undefined) as the molecule, how does the T/C (dose: 4.0 mg/kg/injection, schedule: Q04DX003 (sc), vehicle: saline) read?
A: 120 % of control

Q: What about the T/C (dose: 8.0 mg/kg/injection, schedule: Q04DX003 (sc), vehicle: saline) of the same molecule?
A: 64 % of control

Q: And the T/C (dose: 16.0 mg/kg/injection, schedule: Q04DX003 (sc), vehicle: saline)?
A: 64 % of control

Q: And the T/C (dose: 32.0 mg/kg/injection, schedule: Q04DX003 (sc), vehicle: saline)?
A: 47 % of control

Q: With `CNc1cccnc1/C=N/NC(N)=S` as the molecule, how does the T/C [3] read?
A: 114 % of control

Q: What about the T/C [4] of the same molecule?
A: 61 % of control

Q: And the T/C [5]?
A: 55 % of control

Q: And the T/C (dose: 2400.0 mg/kg/injection, schedule: Q04DX003 (sc), vehicle: saline with Tween-80)?
A: 77 % of control

Q: `NC1=NCN(C2OC(CO)C(O)C2O)C(=O)N1` (centres undefined) was tested. Which T/C [7] did it give?
A: 86 % of control

Q: And the T/C [6]?
A: 32 % of control and 42 % of control

Q: What about the T/C [1] of the same molecule?
A: 34 % of control

Q: What about the T/C [8] of the same molecule?
A: 3 % of control and 4 % of control

Q: And the T/C (dose: 75.0 mg/kg/injection, schedule: Q04DX003 (sc), vehicle: saline)?
A: 55 % of control

Q: What about the T/C (dose: 100.0 mg/kg/injection, schedule: Q01DX010 (sc), vehicle: saline) of the same molecule?
A: 6 % of control

Q: What about the T/C (dose: 100.0 mg/kg/injection, schedule: Q04DX003 (sc), vehicle: saline) of the same molecule?
A: 14 % of control and 30 % of control

Q: What about the T/C (dose: 200.0 mg/kg/injection, schedule: Q04DX003 (sc), vehicle: saline) of the same molecule?
A: 8 % of control

Q: And the T/C (dose: 400.0 mg/kg/injection, schedule: Q04DX003 (sc), vehicle: saline)?
A: 2 % of control

Q: Which T/C [7] does the source give for `C1OC1C1CO1` (centres undefined) here?
A: 4 % of control and 28 % of control

Q: What about the T/C (dose: 12.5 mg/kg/injection, schedule: Q04DX003 (sc), vehicle: suspension in saline) of the same molecule?
A: 63 % of control and 74 % of control

Q: And the T/C [6]?
A: -53 % of control and -47 % of control

Q: What about the T/C (dose: 25.0 mg/kg/injection, schedule: Q04DX003 (sc), vehicle: suspension in saline) of the same molecule?
A: 37 % of control and 44 % of control

Q: What about the T/C [8] of the same molecule?
A: -90 % of control and -85 % of control

Q: And the T/C (dose: 50.0 mg/kg/injection, schedule: Q04DX003 (sc), vehicle: suspension in saline)?
A: 1 % of control and 4 % of control

Q: Which T/C (dose: 4.0 mg/kg/injection, schedule: Q01DX010 (sc), vehicle: saline with Tween-80) does the source give for `O=NN(CCCl)C(=O)NC1CCCCC1` here?
A: 109 % of control

Q: And the T/C (dose: 8.0 mg/kg/injection, schedule: Q04DX003 (sc), vehicle: Klucel (hydroxypropylcellulose) (HPC))?
A: 88 % of control and 92 % of control

Q: And the T/C (dose: 8.0 mg/kg/injection, schedule: Q04DX003 (sc), vehicle: carboxymethylcellulose (CMC))?
A: 89 % of control

Q: And the T/C (dose: 12.5 mg/kg/injection, schedule: Q04DX003 (sc), vehicle: Klucel (hydroxypropylcellulose) (HPC))?
A: 59 % of control

Q: What about the T/C (dose: 16.0 mg/kg/injection, schedule: Q01DX010 (sc), vehicle: saline with Tween-80) of the same molecule?
A: 28 % of control

Q: What about the T/C (dose: 16.0 mg/kg/injection, schedule: Q04DX003 (sc), vehicle: carboxymethylcellulose (CMC)) of the same molecule?
A: 85 % of control

Q: And the T/C (dose: 25.0 mg/kg/injection, schedule: Q04DX003 (sc), vehicle: Klucel (hydroxypropylcellulose) (HPC))?
A: 92 % of control and 213 % of control

Q: And the T/C (dose: 32.0 mg/kg/injection, schedule: Q04DX003 (sc), vehicle: carboxymethylcellulose (CMC))?
A: 77 % of control

Q: What about the T/C (dose: 64.0 mg/kg/injection, schedule: Q04DX003 (sc), vehicle: Klucel (hydroxypropylcellulose) (HPC)) of the same molecule?
A: -95 % of control

Q: What about the T/C (dose: 64.0 mg/kg/injection, schedule: Q04DX003 (sc), vehicle: carboxymethylcellulose (CMC)) of the same molecule?
A: 29 % of control
